Measurements published in patent US8691727B2, “Pesticidal compositions” (Syngenta Crop Protection, LLC, priority 2005, dated 2014).

Assays:
F. subglutinans = test: Agar test: seed contamination and mycelium growth on artificially infected corn seeds; type: cell-based, Fusarium subglutinans; settings: corn cv. Magister; for FUSSUB Activity Observed / FUSSUB Contaminated Seeds / FUSSUB Mycelium Growth: after 6 days
Protocol: (§1) An agar test is performed to evaluate the effect of seed treatments with fludioxonil (2.5 g/100 kg seed)+mefenoxam (1.0 g/100 kg seed), thiabendazole at 10, 15 and 20 g/100 kg seed and the corresponding mixtures of all three components on seed health and viability of corn. Seed lots of corn cv. Magister, is infected artificially with either F. proliferatum or F. subglutinans, are used.
(§2) Czapek-Dox medium (OXOID) is prepared according to manufacturer's recipe: 45.4 g agar in 1 l aqua bidest., autoclaved for 15 min at 121° C., and is cooled down to 55° C. 15 ml medium is poured into each petridish (Ø 10 cm) and is allowed to cool.
(§3) 10 seeds are placed on the surface of the agar. 5 replicates per treatment are done. Petridishes are placed in an incubator at 20° C. under NUV-light (12 h a day). The number of seeds where Fusarium spp. grew out on the agar is rated after an incubation period of 6 days.
(§4) • Mefenoxam (1.0 g ai/100 kg seed)+fludioxonil (2.5 g ai/100 kg seed). • Thiabendazole at 10, 15 and 20 g ai/100 kg seed. • Mefenoxam (1.0 g ai/100 kg seed)+fludioxonil (2.5 g ai/100 kg seed)+thiabendazole (at 10, 15 or 20 g ai/100 kg seed).
(§5) For combined treatments mefenoxam+fludioxonil are applied first on the seeds as a combined formulation and after drying the second application on the seeds with thiabendazole is performed.

F. proliferatum = test: as above; type: cell-based, Fusarium proliferatum; settings: corn cv. Magister, after 6 days
Protocol: as §1, §2, §3, §4, §5

[1] = thiabendazole 10 g ai/100 kg seed (mixture: plus mefenoxam 1.0 g + fludioxonil 2.5 g ai/100 kg seed)
[2] = thiabendazole 15 g ai/100 kg seed (mixture: plus mefenoxam 1.0 g + fludioxonil 2.5 g ai/100 kg seed)
[3] = thiabendazole 20 g ai/100 kg seed (mixture: plus mefenoxam 1.0 g + fludioxonil 2.5 g ai/100 kg seed)

For `c1ccc2[nH]c(-c3cscn3)nc2c1` [Thiabendazole, thiabendazole], the “FUSSUB Activity Observed” value (F. subglutinans; [1]) was 32%, the “FUSSUB Contaminated Seeds” value (F. subglutinans; [1]) was 94% and the “FUSSUB Mycelium Growth” value (F. subglutinans; [1]) was 68%. For the same compound, the “FUSSUB Activity Observed” value (F. subglutinans; [2]) was 60%, the “FUSSUB Contaminated Seeds” value (F. subglutinans; [2]) was 100% and the “FUSSUB Mycelium Growth” value (F. subglutinans; [2]) was 40%. For the same compound, the “FUSSUB Activity Observed” value (F. subglutinans; [3]) was 91%, the “FUSSUB Contaminated Seeds” value (F. subglutinans; [3]) was 52% and the “FUSSUB Mycelium Growth” value (F. subglutinans; [3]) was 9%. For the same compound, the “Mycelium growth, dose response (in words)” value (F. subglutinans; thiabendazole at 10, 15 and 20 g ai/100 kg seed) was “linear dose response”, the “FUSPRO Activity Observed” value (F. proliferatum; [1]) was 40% and the “FUSPRO Contaminated Seeds” value (F. proliferatum; [1]) was 62%. For the same compound, the “FUSPRO Mycelium Growth” value (F. proliferatum; [1]) was roughly 60%, the “FUSPRO Contaminated Seeds” value (F. proliferatum; [2]) was 44% and the “FUSPRO Contaminated Seeds” value (F. proliferatum; [3]) was 40%. For the same compound, the “FUSPRO Contaminated Seeds” value (F. proliferatum; thiabendazole 20 g ai/100 kg seed (mixture: plus mefenoxam 1.0 g + fludioxonil 2.5 g ai/100 kg seed), listed as thiabendazole) was “reduces the number of Fusarium infected seeds”.
